Test results published in ChEMBL document CHEMBL4425099, “Use of Osmotic Pumps to Establish the Pharmacokinetic-Pharmacodynamic Relationship and Define Desirable Human Performance Characteristics for Aggrecanase Inhibitors” (J Med Chem, 2016).
In brackets after ≈: the same amount, converted by molar mass. Activity calls are given as the source filed them. The calls are words filed in the database; no cut-off is given here.

How the values were obtained:
[1] = Plasma concentration in Lewis rat model of MIA at 10 mg/mL, sc administered through infusion pump post 3 days MIA induction; type: ADME, organism-based
[2] = Plasma concentration in Lewis rat model of MIA at 4.3 mg/mL, sc administered through infusion pump post 3 days MIA induction; type: ADME, organism-based
[3] = Ratio of plasma concentration in Lewis rat model of MIA at 30 mg/kg, po bid administered post 3 days MIA induction measured after 12 hrs of last dosage on day 7 to IC50 for human ADAMTS5 in presence of Lewis rat plasma; type: ADME, organism-based; conditions: in vivo
[4] = system: Rattus norvegicus; assay: Reduction in ADAMTS-4/ADAMTS-5 mediated aggrecan cleavage products in Lewis rat model of MIA assessed as aggrecanase-cleaved fragments at 10 mg/mL, sc administered through infusion pump post 3 days MIA induction measured after 4 hrs of last dosage on day 7 by NITEGE sandwich ELISA; type: functional
[5] = system: Rattus norvegicus; assay: Reduction in ADAMTS-4/ADAMTS-5 mediated aggrecan cleavage products in Lewis rat model of MIA assessed as aggrecanase-cleaved fragments at 4.3 mg/mL, sc administered through infusion pump post 3 days MIA induction measured after 4 hrs of last dosage on day 7 by NITEGE sandwich ELISA; type: functional
[6] = Solubility of the compound at pH 7.5; type: physicochemical; conditions: buffer
[7] = system: Rattus norvegicus; assay: Reduction in ADAMTS-4/ADAMTS-5 mediated aggrecan cleavage products in Lewis rat model of MIA assessed as aggrecanase-cleaved fragments at 1.44 mg/mL, sc administered through infusion pump post 3 days MIA induction measured after 4 hrs of last dosage on day 7 by NITEGE sandwich ELISA; type: functional
[8] = Tmax in Lewis rat plasma at 30 mg/kg, po; type: ADME, organism-based
[9] = Ratio of plasma concentration in Lewis rat model of MIA at 30 mg/kg, po bid administered post 3 days MIA induction measured after 1 hr of last dosage on day 7 to IC50 for human ADAMTS5 in presence of Lewis rat plasma; type: ADME, organism-based; conditions: in vivo
[10] = Plasma concentration in Lewis rat model of MIA at 1.44 mg/mL, sc administered through infusion pump post 3 days MIA induction; type: ADME, organism-based
[11] = Ratio of plasma concentration in Lewis rat model of MIA at 4.3 mg/mL, sc administered through infusion pump post 3 days MIA induction to IC50 for human ADAMTS5 in presence of rat plasma; type: ADME, organism-based; conditions: in vivo, 72 h
[12] = Dissociation constant, basic pKa of the compound; type: physicochemical
[13] = Ratio of plasma concentration in Lewis rat model of MIA at 1.44 mg/mL, sc administered through infusion pump post 3 days MIA induction to IC50 for human ADAMTS5 in presence of rat plasma; type: ADME, organism-based; conditions: in vivo, 72 h
[14] = Oral bioavailability in rat at 10 mg/kg; type: ADME, organism-based; conditions: in vivo
[15] = system: Rattus norvegicus; assay: Reduction in ADAMTS-4/ADAMTS-5 mediated aggrecan cleavage products in Lewis rat model of MIA assessed as aggrecanase-cleaved fragments at 60 mg/mL administered through infusion pump post 3 days MIA induction measured after 4 hrs of last dosage on day 7 by NITEGE sandwich ELISA; type: functional
[16] = Plasma concentration in Lewis rat model of MIA at 60 mg/mL, […] post 3 days MIA induction; type: ADME, organism-based
[17] = Plasma concentration in Lewis rat model of MIA at 6 mg/mL, […] post 3 days MIA induction; type: ADME, organism-based
[18] = system: Rattus norvegicus; assay: Reduction in meniscal tear-induced osteoarthritis total joint score in Lewis rat surgical model at 30 and 100 mg/kg, po bid relative to vehicle control; type: functional, organism-based
[19] = Plasma concentration in Lewis rat model of MIA at 18 mg/mL, […] post 3 days MIA induction; type: ADME, organism-based
[20] = system: Rattus norvegicus; assay: Reduction in ADAMTS-4/ADAMTS-5 mediated aggrecan cleavage products in Lewis rat model of MIA assessed as aggrecanase-cleaved fragments at 18 mg/mL administered through infusion pump post 3 days MIA induction measured after 4 hrs of last dosage on day 7 by NITEGE sandwich ELISA; type: functional
[21] = Ratio of plasma concentration in Lewis rat model of MIA at 45 mg/kg, po qd administered post 3 days MIA induction measured after 4 hrs of last dosage on day 7 to IC50 for human ADAMTS5 in presence of Lewis rat plasma; type: ADME, organism-based; conditions: in vivo
[22] = Plasma concentration in Lewis rat model of MIA at […], po administered through infusion pump post 3 days MIA induction; type: ADME, organism-based
[23] = system: Rattus norvegicus; assay: Reduction in ADAMTS-4/ADAMTS-5 mediated aggrecan cleavage products in Lewis rat model of MIA assessed as aggrecanase-cleaved fragments at 30 mg/kg, po qd administered post 3 days MIA induction measured after 4 hrs of last dosage on day 7 by NITEGE sandwich ELISA; type: functional
[24] = Ratio of plasma concentration in Lewis rat model of MIA at […], […] administered through infusion pump post 3 days MIA induction to IC50 for human ADAMTS5 in presence of rat plasma; type: ADME, organism-based; conditions: in vivo, 72 h
[25] = Ratio of plasma concentration in Lewis rat model of MIA at 60 mg/mL, […] post 3 days MIA induction to IC50 for human ADAMTS5 in presence of rat plasma; type: ADME, organism-based; conditions: in vivo, 72 h
[26] = Solubility of the compound at pH 2; type: physicochemical; conditions: buffer
[27] = system: Rattus norvegicus; assay: Reduction in ADAMTS-4/ADAMTS-5 mediated aggrecan cleavage products in Lewis rat model of MIA assessed as aggrecanase-cleaved fragments at […] administered through infusion pump post 3 days MIA induction measured after 4 hrs of last dosage on day 7 by NITEGE sandwich ELISA; type: functional
[28] = Ratio of plasma concentration in Lewis rat model of MIA at 6 mg/mL, […] post 3 days MIA induction to IC50 for human ADAMTS5 in presence of rat plasma; type: ADME, organism-based; conditions: in vivo, 72 h
[29] = Ratio of plasma concentration in Lewis rat model of MIA at 18 mg/mL, […] post 3 days MIA induction to IC50 for human ADAMTS5 in presence of rat plasma; type: ADME, organism-based; conditions: in vivo, 72 h
[30] = system: Rattus norvegicus; assay: Reduction in ADAMTS-4/ADAMTS-5 mediated aggrecan cleavage products in Lewis rat model of MIA assessed as aggrecanase-cleaved fragments at 6 mg/mL administered through infusion pump post 3 days MIA induction measured after 4 hrs of last dosage on day 7 by NITEGE sandwich ELISA; type: functional
[31] = system: Rattus norvegicus; assay: Reduction in ADAMTS-4/ADAMTS-5 mediated aggrecan cleavage products in Lewis rat model of MIA assessed as aggrecanase-cleaved fragments at 3 mg/kg, po bid administered post 3 days MIA induction measured after 4 hrs of last dosage on day 7 by NITEGE sandwich ELISA relative to vehicle control; type: functional, organism-based

Q: With `Cn1ccnc1[C@]1(CNC(=O)c2cc3cc(C(F)(F)F)ccc3o2)NC(=O)NC1=O` as the compound, how does the concentration at 72 h [1] read?
A: 1100 nM

Q: What about the concentration at 72 h [2] of the same compound?
A: 360 nM

Q: And the Ratio [3]?
A: 10

Q: And the “inhibition (INH)” value [4]?
A: 64%

Q: And the “inhibition (INH)” value [5]?
A: 57%

Q: What about the solubility [6] of the same compound?
A: 1740 µg/mL (≈ 4130 µM)

Q: What about the “inhibition (INH)” value [7] of the same compound?
A: 16%

Q: What about the Tmax [8] of the same compound?
A: 1 h

Q: What about the Ratio [9] of the same compound?
A: 2000

Q: And the concentration at 72 h [10]?
A: 130 nM

Q: What about the Ratio [11] of the same compound?
A: 10

Q: And the pKa [12]?
A: 3.67

Q: And the Ratio [13]?
A: 3.7

Q: What does the source list for `O=C1NC(=O)[C@](CNC(=O)c2cc3cc(C(F)(F)F)ccc3o2)(C2CC2)N1`?
A: bioavailability [14]: 83%; inhibition (INH) [15]: 59%; concentration at 72 h [16]: 2900 nM; concentration at 72 h [17]: 630 nM; inhibition [18]: Active; concentration at 72 h [19]: 2200 nM; inhibition (INH) [20]: 56%; Ratio [21]: 10; concentration at 72 h [22]: 200 nM; inhibition in vivo at 30 mg/kg [23]: 52%; Ratio [24]: 3.2; Ratio [25]: 46; solubility [26]: 12 µg/mL (≈ 31.5 µM); inhibition (INH) [27]: 21%; Ratio [28]: 10; Ratio [29]: 35; inhibition (INH) [30]: 44%; inhibition [31]: Active
